Assay results taken from patent US20230399342A1 (Incyte Corporation, priority 2022, published 2023).

Experiments:
DGKζ = DGKζ (Homo sapiens (Human), UniProt Q13574); assay: In vitro DGKζ inhibition assay (ADP-Glo); format: biochemical; settings: His-tagged human recombinant enzyme, 0.4 nM DGK, 30 μM ATP, 20 μM DLG, 90 minute incubation
Method: (§1) The DGKα and DGKξ biochemical reactions were performed using His-tagged human recombinant enzymes (Signal Chem, DGKα, #D21-1OBH; DGKξ, #D30-10H)) and DLG (Dilauroyl-sn-glycerol) lipid substrate (Signal Chem, #D430-59). ADP-Glo assay was performed using ADP-Glog™ kinase Assay kit (Promega, #V9104). The reactions were carried out in assay buffer containing 40 mM Tris, pH 7.5, 0.1% CHAPS, 0.1% Prionex, 40 mM NaCl, 5 mM MgCl2, 1 mM CaCl2, and 1 mM DTT. DGKα reactions contained 0.1 nM DGKα, 50 μM ATP, and 20 μM DLG. And DGKC reactions contained 0.4 nM DGK, 30 μM ATP, and 20 μM DLG.
(§2) For compound inhibition studies, 40 nL test compound in DMSO was added to wells of white polystyrene plates in 384-well (Greiner, #784075) or 1536-well format (Greiner, #782075). Compounds were added with top concentration of 2 mM with 11 point, 3-fold dilution series. Enzyme solution (contains 2×DGK enzyme concentration in Ix assay buffer) was added to the plate in 2 μL/well volume, followed by 2 μL/well of substrate solution (contains 2×concentration of ATP and DLG substrate in Ix assay buffer). Plates were then centrifuged for 1 min at 1200 RPM and sealed or lidded. For 4 μL reaction volume, test compounds were therefore diluted 100× to final top concentration of 20 μM. After 90 minute incubation, reactions were quenched by addition of 2 μL/well Promega ADP-Glo Reagent, followed by centrifugation and lidding. After 60 min incubation, 2 μL/well Promega Kinase Detection Reagent was added, plates centrifuged, and incubated for 30 min. Plates were then read using Luminescence method on BMG PHERAstar FSX plate reader. Percent inhibition was calculated and IC50s were determined using 4-parameter fit in Genedata Screener. Labcyte Echo acoustic dispenser was used for compound addition, and Formulatrix Tempest liquid handler was used for all reagent dispenses.

DGKα = DGKα (Homo sapiens (Human), UniProt P23743); assay: In vitro DGKα inhibition assay (ADP-Glo); format: biochemical; settings: His-tagged human recombinant enzyme, 0.1 nM DGKα, 50 μM ATP, 20 μM DLG, 90 minute incubation
Method: as §1, §2

Sequence of DGKα (P23743 whole entry): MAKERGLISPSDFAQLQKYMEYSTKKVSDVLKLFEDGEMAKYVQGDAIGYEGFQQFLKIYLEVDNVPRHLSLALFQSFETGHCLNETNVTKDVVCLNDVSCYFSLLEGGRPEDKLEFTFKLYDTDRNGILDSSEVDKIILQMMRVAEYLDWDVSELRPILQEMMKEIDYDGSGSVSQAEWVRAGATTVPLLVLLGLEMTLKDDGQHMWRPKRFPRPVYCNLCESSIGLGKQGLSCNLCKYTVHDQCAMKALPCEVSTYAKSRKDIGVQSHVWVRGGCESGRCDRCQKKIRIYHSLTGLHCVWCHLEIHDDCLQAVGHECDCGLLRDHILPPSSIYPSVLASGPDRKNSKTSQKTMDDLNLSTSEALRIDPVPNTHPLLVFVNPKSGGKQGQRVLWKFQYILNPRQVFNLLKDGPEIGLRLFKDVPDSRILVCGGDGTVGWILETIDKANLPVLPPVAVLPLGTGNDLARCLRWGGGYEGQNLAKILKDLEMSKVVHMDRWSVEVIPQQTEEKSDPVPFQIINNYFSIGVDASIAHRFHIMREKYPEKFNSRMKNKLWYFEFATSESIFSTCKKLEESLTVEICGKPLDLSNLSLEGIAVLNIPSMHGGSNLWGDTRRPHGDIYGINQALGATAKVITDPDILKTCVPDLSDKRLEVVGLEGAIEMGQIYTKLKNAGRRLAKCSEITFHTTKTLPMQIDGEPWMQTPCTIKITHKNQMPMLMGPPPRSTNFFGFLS
Sequence of DGKζ (Q13574 whole entry): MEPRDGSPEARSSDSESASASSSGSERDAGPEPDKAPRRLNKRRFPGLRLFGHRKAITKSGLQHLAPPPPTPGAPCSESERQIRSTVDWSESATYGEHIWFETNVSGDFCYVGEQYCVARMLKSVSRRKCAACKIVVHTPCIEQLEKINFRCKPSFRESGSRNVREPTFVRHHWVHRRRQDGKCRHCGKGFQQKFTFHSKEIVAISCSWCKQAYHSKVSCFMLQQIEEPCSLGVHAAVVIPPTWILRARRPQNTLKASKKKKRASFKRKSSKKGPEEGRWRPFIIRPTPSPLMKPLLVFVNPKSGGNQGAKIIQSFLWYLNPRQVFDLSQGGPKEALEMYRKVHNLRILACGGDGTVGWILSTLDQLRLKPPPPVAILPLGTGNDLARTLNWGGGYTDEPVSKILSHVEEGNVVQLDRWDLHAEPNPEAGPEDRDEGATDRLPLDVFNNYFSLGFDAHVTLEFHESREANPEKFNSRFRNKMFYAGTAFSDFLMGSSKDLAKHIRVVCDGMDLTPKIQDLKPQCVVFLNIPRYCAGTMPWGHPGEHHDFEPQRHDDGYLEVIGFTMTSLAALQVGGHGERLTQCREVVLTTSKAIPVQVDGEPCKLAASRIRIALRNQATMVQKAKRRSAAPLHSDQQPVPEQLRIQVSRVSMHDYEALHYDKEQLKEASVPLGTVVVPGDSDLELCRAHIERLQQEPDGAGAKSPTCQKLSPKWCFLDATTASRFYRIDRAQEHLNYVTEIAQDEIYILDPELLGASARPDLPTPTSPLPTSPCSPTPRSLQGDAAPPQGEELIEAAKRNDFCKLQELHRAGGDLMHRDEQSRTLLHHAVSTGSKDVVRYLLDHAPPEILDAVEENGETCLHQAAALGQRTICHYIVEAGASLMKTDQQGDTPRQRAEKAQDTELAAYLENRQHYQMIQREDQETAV

Work on `COc1ccc([C@H](C(C)C)N2C[C@H](C)N(c3nc4nncn4c4c3nc(C)n4C[C@@H]3CCCO3)C[C@H]2C)cc1` [Example 77, 4-((2S,5R)-4-((S)-1-(4-Methoxyphenyl)-2-methylpropyl)-2,5-dimethylpiperazin-1-yl)-2-methyl-1-(((S)-tetrahydrofuran-2-yl)methyl)-1H-[1,2,4]triazolo[3,4-b]purine] yielded an IC50 (DGKζ) of no more than 0.02 µM and an IC50 (DGKα) of no more than 0.02 µM.

Molecule `Cc1nc2c(N3C[C@@H](C)N(C(c4ccc(F)c(Cl)c4F)C4CC(F)(F)C4)C[C@@H]3C)nc3nncn3c2n1C[C@@H]1CCCO1` (stereo partly drawn) [Example 57, 4-((2S,5R)-4-((3-Chloro-2,4-difluorophenyl)(3,3-difluorocyclobutyl)methyl)-2,5-dimethylpiperazin-1-yl)-2-methyl-1-(((S)-tetrahydrofuran-2-yl)methyl)-1H-[1,2,4]triazolo[3,4-b]purine] has an IC50 (DGKζ) of no more than 0.02 µM and an IC50 (DGKα) of no more than 0.02 µM.

`Cc1nc2c(N3C[C@@H](C)N(C(c4ccc(C(F)(F)F)cc4)[C@H]4C[C@H](C(F)(F)F)C4)C[C@@H]3C)nc3nncn3c2n1C[C@@H]1CCCO1` (stereo partly drawn) [Example 115, 4-((2S,5R)-2,5-Dimethyl-4-(((trans)-3-(trifluoromethyl)cyclobutyl)(4-(trifluoromethyl)phenyl)methyl)piperazin-1-yl)-2-methyl-1-(((S)-tetrahydrofuran-2-yl)methyl)-1H-[1,2,4]triazolo[3,4-b]purine] was tested, and the IC50 (DGKζ) was no more than 0.02 µM and the IC50 (DGKα) was no more than 0.02 µM.

`CC[C@@H]1CN(c2nc3nncn3c3c2nc(C)n3C[C@@H]2CCCO2)[C@@H](C)CN1C(c1ccc(F)cc1)c1ccc(F)cc1` [Example 20, 4-((2S,5R)-4-(Bis(4-fluorophenyl)methyl)-5-ethyl-2-methylpiperazin-1-yl)-2-methyl-1-(((S)-tetrahydrofuran-2-yl)methyl)-1H-[1,2,4]triazolo[3,4-b]purine] gave an IC50 (DGKζ) of no more than 0.02 µM and an IC50 (DGKα) of no more than 0.02 µM.

Work on `Cc1nc2c(N3C[C@@H](C)N(C(c4ccc(C(F)F)c(F)c4)C(C)C)C[C@@H]3C)nc3nncn3c2n1C[C@@H]1CCCO1` (single isomer, unassigned) [Example 81] yielded an IC50 (DGKζ) of no more than 0.02 µM and an IC50 (DGKα) of no more than 0.02 µM.

`Cc1nc2c(N3C[C@@H](C)N([C@H](c4ccc(OC(F)F)cc4)C(C)C)C[C@@H]3C)nc3nncn3c2n1C[C@@H]1CCCO1` [Example 79, 4-((2S,5R)-4-((S)-1-(4-(Difluoromethoxy)phenyl)-2-methylpropyl)-2,5-dimethylpiperazin-1-yl)-2-methyl-1-(((S)-tetrahydrofuran-2-yl)methyl)-1H-[1,2,4]triazolo[3,4-b]purine] was tested, and the IC50 (DGKζ) was no more than 0.02 µM and the IC50 (DGKα) was no more than 0.02 µM.

`C[C@@H]1CN(c2nc3nncn3c3c2nnn3C[C@H]2CCCO2)[C@@H](C)CN1C(c1ccc(Br)cc1)c1ccc(Br)cc1` [Example 110, 4-((2S,5R)-4-(Bis(4-bromophenyl)methyl)-2,5-dimethylpiperazin-1-yl)-1-(((R)-tetrahydrofuran-2-yl)methyl)-1H-[1,2,3]triazolo[4,5-e][1,2,4]triazolo[4,3-a]pyrimidine] was tested, and the IC50 (DGKζ) was no more than 0.02 µM and the IC50 (DGKα) was no more than 0.02 µM.

With `C[C@@H]1CN(c2nc3nncn3c3c2ncn3C[C@@H]2CCCO2)[C@@H](C)CN1C(c1ccc(Cl)cc1)c1ccc(Cl)cc1` [Example 93, 4-((2S,5R)-4-(Bis(4-chlorophenyl)methyl)-2,5-dimethylpiperazin-1-yl)-1-(((S)-tetrahydrofuran-2-yl)methyl)-1H-[1,2,4]triazolo[3,4-b]purine] the IC50 (DGKζ) was no more than 0.02 µM and the IC50 (DGKα) was no more than 0.02 µM.

For `Cc1nc2c(N3C[C@@H](C)N(C(c4ccc(F)c(C(F)F)c4)C(C)C)C[C@@H]3C)nc3nncn3c2n1C[C@@H]1CCCO1` (stereo partly drawn) [Example 82, 4-((2S,5R)-4-(1-(3-(Difluoromethyl)-4-fluorophenyl)-2-methylpropyl)-2,5-dimethylpiperazin-1-yl)-2-methyl-1-(((S)-tetrahydrofuran-2-yl)methyl)-1H-[1,2,4]triazolo[3,4-b]purine], the IC50 (DGKζ) was no more than 0.02 µM and the IC50 (DGKα) was no more than 0.02 µM.

`C[C@@H]1CN(c2nc3nncn3c3c2nnn3C[C@H]2CCCO2)[C@@H](C)CN1C(c1ccc(Cl)cc1)c1ccc(Cl)cc1` [Example 106, 4-((2S,5R)-4-(Bis(4-chlorophenyl)methyl)-2,5-dimethylpiperazin-1-yl)-1-(((R)-tetrahydrofuran-2-yl)methyl)-1H-[1,2,3]triazolo[4,5-e][1,2,4]triazolo[4,3-a]pyrimidine] was tested, and the IC50 (DGKζ) was no more than 0.02 µM and the IC50 (DGKα) was no more than 0.02 µM.

Molecule `[2H]c1nc2c(N3C[C@@H](C)N(C(c4ccc(F)cc4)c4ccc(F)cc4)C[C@@H]3C)nc3nncn3c2n1CCN(C)C` [Example 34, 2-(4-((2S,5R)-4-(Bis(4-fluorophenyl)methyl)-2,5-dimethylpiperazin-1-yl)-1H-[1,2,4]triazolo[3,4-b]purin-1-yl-2-d)-N,N-dimethylethan-1-amine] has an IC50 (DGKζ) of no more than 0.02 µM and an IC50 (DGKα) of no more than 0.02 µM.

Work on `Cc1nc2c(N3C[C@@H](C)N([C@@H](c4ccc(OC(F)F)cc4F)C(C)C)C[C@@H]3C)nc3nncn3c2n1C[C@@H]1CCCO1` [Example 76, 4-((2S,5R)-4-((R)-1-(4-(difluoromethoxy)-2-fluorophenyl)-2-methylpropyl)-2,5-dimethylpiperazin-1-yl)-2-methyl-1-(((S)-tetrahydrofuran-2-yl)methyl)-1H-[1,2,4]triazolo[3,4-b]purine] yielded an IC50 (DGKζ) of no more than 0.02 µM and an IC50 (DGKα) of no more than 0.02 µM.

`CC[C@@H]1CN(c2nc3nncn3c3c2nc(C)n3C[C@@H]2CCCO2)[C@@H](C)CN1[C@H](c1ccc(OC(F)(F)F)cc1)C(C)C` [Example 130, 4-((2S,5R)-5-ethyl-2-methyl-4-((S)-2-methyl-1-(4-(trifluoromethoxy)phenyl)propyl)piperazin-1-yl)-2-methyl-1-(((S)-tetrahydrofuran-2-yl)methyl)-1H-[1,2,4]triazolo[3,4-b]purine] was tested, and the IC50 (DGKζ) was no more than 0.02 µM and the IC50 (DGKα) was no more than 0.02 µM.

In the case of `C[C@@H]1CN(c2nc3nncn3c3c2ncn3CCN(C)C)[C@@H](C)CN1C(c1ccc(F)c(Cl)c1)[C@H]1C[C@H](C(F)(F)F)C1` (stereo partly drawn) [Example 114, 2-(4-((2S,5R)-4-((3-chloro-4-fluorophenyl)((trans)-3-(trifluoromethyl)cyclobutyl)methyl)-2,5-dimethylpiperazin-1-yl)-1H-[1,2,4]triazolo[3,4-b]purin-1-yl)-N,N-dimethylethan-1-amine], the IC50 (DGKζ) is reported as no more than 0.02 µM and the IC50 (DGKα) is reported as no more than 0.02 µM.

In the case of `Cc1nc2c(N3C[C@@H](C)N(C(c4cc(F)ccc4F)C4CC(F)(F)C4)C[C@@H]3C)nc3nncn3c2n1C[C@@H]1CCCO1` (stereo partly drawn) [Example 53, 4-((2S,5R)-4-((3,3-Difluorocyclobutyl)(2,5-difluorophenyl)methyl)-2,5-dimethylpiperazin-1-yl)-2-methyl-1-(((S)-tetrahydrofuran-2-yl)methyl)-1H-[1,2,4]triazolo[3,4-b]purine], the IC50 (DGKζ) is reported as no more than 0.02 µM and the IC50 (DGKα) is reported as no more than 0.02 µM.

`C[C@@H]1CN(c2nc3nncn3c3c2ncn3C[C@@H]2CCCO2)[C@@H](C)CN1[C@@H](c1ccc(F)cc1)c1ccc(OC(F)(F)F)cn1` [Example 26, 4-((2S,5R)-4-((S)-(4-Fluorophenyl)(5-(trifluoromethoxy)pyridin-2-yl)methyl)-2,5-dimethylpiperazin-1-yl)-1-(((S)-tetrahydrofuran-2-yl)methyl)-1H-[1,2,4]triazolo[3,4-b]purine] showed an IC50 (DGKζ) of no more than 0.02 µM and an IC50 (DGKα) of no more than 0.02 µM.
